Columns and labels:
[1] = system: adult male Lister hooded rats; assay: novel object discrimination (NOD) task, natural forgetting with 4 h inter-trial interval; type: in vivo, rat
Experimental: NOD testing was performed as described by King et al. (2004 Neuropharmacol. 47 195), and used five separate groups (n=12) of adult male Lister hooded rats (145-235 g). Within each group rats were tested on 3-4 occasions (at one-week intervals) to receive all possible treatment combinations and serve as their own controls.

5-HT6 receptor = 5-HT6 receptor (Homo sapiens, UniProt P50406); assay: 5-HT6 receptor affinity (Ki) of Compound A; type: binding
5-HT6 receptor, sequence (P50406 whole entry): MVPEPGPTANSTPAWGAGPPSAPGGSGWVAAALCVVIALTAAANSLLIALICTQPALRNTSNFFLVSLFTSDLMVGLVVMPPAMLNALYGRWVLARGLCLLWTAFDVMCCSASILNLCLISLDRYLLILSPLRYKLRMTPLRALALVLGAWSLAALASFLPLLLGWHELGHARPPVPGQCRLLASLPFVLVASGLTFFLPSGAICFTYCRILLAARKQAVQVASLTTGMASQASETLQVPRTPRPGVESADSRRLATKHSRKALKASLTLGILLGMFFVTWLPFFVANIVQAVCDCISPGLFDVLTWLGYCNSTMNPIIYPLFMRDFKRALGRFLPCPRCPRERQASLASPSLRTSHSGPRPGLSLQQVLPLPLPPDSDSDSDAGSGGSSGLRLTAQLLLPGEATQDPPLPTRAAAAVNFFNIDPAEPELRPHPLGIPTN

Compound | natural forgetting (discrimination of novel versus familiar object) ([1]; Aricept 0.1 mg/kg i.p., 20 min pre-treatment, 4 h inter-trial interval) | natural forgetting (discrimination of novel versus familiar object) ([1]; Aricept 0.3 mg/kg i.p., 20 min pre-treatment, 4 h inter-trial interval) | discrimination ratio versus vehicle ([1]; Aricept 1 mg/kg i.p., 20 min pre-treatment) | natural forgetting (discrimination of novel versus familiar object) ([1]; Aricept 1 mg/kg i.p., 20 min pre-treatment, 4 h inter-trial interval, novel versus familiar p<0.001) | Ki (5-HT6 receptor) [nM] | natural forgetting (discrimination of novel versus familiar object) ([1]; Compound A 0.3 mg/kg i.p. combined with sub-efficacious dose (0.1 mg/kg i.p.) of Aricept, novel versus familiar p<0.01) | natural forgetting (discrimination of novel versus familiar object) ([1]; Compound A 0.3 mg/kg i.p. given alone) | natural forgetting (discrimination of novel versus familiar object) ([1]; Compound A 1 mg/kg i.p. combined with sub-efficacious dose (0.1 mg/kg i.p.) of Aricept, novel versus familiar p<0.05) | natural forgetting (discrimination of novel versus familiar object) ([1]; Compound A 1 mg/kg i.p. given alone) | natural forgetting (discrimination of novel versus familiar object) ([1]; Compound A 3 mg/kg i.p., 40 min pre-treatment, 4 h inter-trial interval, novel versus familiar p<0.001) | discrimination ratio versus vehicle ([1]; Compound A 3 mg/kg i.p., 40 min pre-treatment, p<0.05 repeated measures ANOVA) | natural forgetting (discrimination of novel versus familiar object) ([1]; Compound A 10 mg/kg i.p., 40 min pre-treatment, 4 h inter-trial interval, novel versus familiar p<0.01) | discrimination ratio versus vehicle ([1]; Compound A 10 mg/kg i.p., 40 min pre-treatment, p<0.05 repeated measures ANOVA)
COc1cc2c(cc1OC)C(=O)C(CC1CCN(Cc3ccccc3)CC1)C2 (stereo not shown) [Aricept, donepezil, reference compound] | lacked effect | lacked effect | without significantly increasing the discrimination ratio | prevented natural forgetting | – | – | – | – | – | – | – | – | –
COc1cc(Cl)cc(C(C)Nc2cc(N3CCNCC3)ccc2S(C)(=O)=O)c1OC.Cl (stereo not shown) [Compound A, [1-(5-Chloro-2,3-dimethoxy-phenyl)-ethyl]-(2-methanesulfonyl-5-piperazin-1-yl-phenyl)-amine hydrochloride] | – | – | – | – | 4 | restored discrimination | lacked significant effect | restored discrimination | lacked significant effect | prevented this natural forgetting | increased the discrimination ratio from vehicle levels | prevented this natural forgetting | increased the discrimination ratio from vehicle levels
